The nature of data set [1]: Fraction of drug unbound to brain proteins. In kind it is in vitro ADME, Mouse. Conditions: read-out: Fu (b) % (fraction of drug unbound to brain proteins).
A short description of a further data set: in vitro. Conditions: human, Caco-2, pH 7.4. In outline:
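Compound at 10 μM in HBSS pH 7.4 dosed A-to-B and B-to-A across Caco-2 monolayers, 90 min at 37 °C, duplicates. Monolayer integrity by TEER and lucifer yellow (5 μM, fluorescence 485/535 nm); compound quantified by LC-MS/MS.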

Data set [2] can be described thus: Fraction of drug unbound to plasma proteins. In kind it is in vitro ADME, Mouse. Conditions: read-out: Fu (p) % (fraction of drug unbound to plasma proteins).
A short description of data set [3]: Mouse brain uptake assay (pharmacokinetics and brain penetration after IV administration). The data set is classed as in vivo, Male CD1 Mice. Conditions: male, 3 mg/kg IV; for Kp / Kp uu: CD1, brain and plasma; for Kp / Kp uu / clearance / half-life: mouse; for Kp uu: read-out: Kp, uu (unbound brain/unbound plasma drug concentration ratio); for clearance / half-life: CD1, plasma; for clearance: read-out: Cl (Clearance) (converted); for half-life: read-out: t½ (half life) (converted); for AUC(0-t): CD1. The method, then: Example 15: Pharmacokinetics and Brain Penetration Experiment to Determine Brain and Plasma Concentrations of Compounds after IV Administration to Male CD1 Mice or Male SD Rats
The study design (9 animals) consisted of administrating the drug (IV: 3 mg/kg (5 mL/kg) via tail vein injection) and collecting samples at terminal bleeding for plasma and brain at 0.083, 0.5 and 1 h. The blood collection was performed as follows: the animal was restrained manually and approximately 150 μL blood/time point was collected into a dipotassium EDTA tube via retro orbital puncture under anesthesia with isoflurane. The blood sample was put on ice and centrifuged to obtain a plasma sample (2000 g, 5 min under 4° C.) within 15 minutes. The brain collection was performed as follows: a mid-line incision was made in the animal's scalp and the skin was retracted. Using small bone cutters and rongeurs, the skull overlying the brain was removed. The brain was removed using a spatula and the brain rinsed with cold saline. The brain was placed in screw-top tubes, and the tubes were stored at −70° C. until analysis. The IV dosing solution was prepared in 50 mM citrate buffer (pH 4.0) at 0.6 mg/mL.
Plasma Sample Preparation:
An aliquot of 30 μL sample was added to […] containing 50 ng/mL IS (Dexamethasone). The mixture was vortexed for 5 min and centrifuged at 14,000 rpm for 5 min. An aliquot of 5 μL supernatant was injected for LC-MS/MS analysis.
Brain Sample Preparation:
An aliquot of 30 μL brain homogenate (brain:PBS=1:3, w/v) sample was added to 150 μL IS in MeCN (Dexamethasone, 50 ng/mL). The mixture was vortexed for 5 min and centrifuged at 14,000 rpm for 5 min. An aliquot of 5 μL supernatant was injected for LC-MS/MS analysis.
The sample analysis was performed on LCMS/MS-003 (API4000, triple quadruple) under the following conditions: positive ion, ESI, MRM detection using dexamethasone as internal standard. HPLC conditions: mobile phase A: H2O (0.025% formic acid (FA) with 1 mM NH4OAc); mobile phase B: MeOH (0.025% FA with 1 mM NH4OAc) on Waters X-Bridge C18 (2.1×50 mm, 2.5 μm) column at 60° C.
A similar experiment was performed with 4 time points taken from 0-24 h.

Where [4] appears, read: 0-1 h, 3 time points, read-out: Kp (brain/plasma drug concentration ratio, AUC last(b)/AUC last(p)).
The mark [5] stands for this setting: mouse brain, time zero to 1 hr, 3 time points, read-out: AUClast (b) (area under the brain drug concentration-time curve).
Setting [6] is: mouse plasma, time zero to 1 hr, 3 time points, read-out: AUClast (p) (area under the plasma drug concentration-time curve).
The mark [7] stands for this setting: 0-24 h, 4 time points, read-out: Kp (brain/plasma drug concentration ratio).
[8] abbreviates: mouse brain, 0-24 h, 4 time points, read-out: AUClast (b) (area under the brain drug concentration-time curve).
The mark [9] stands for this setting: mouse plasma, 0-24 h, 4 time points, read-out: AUClast (p) (area under the plasma drug concentration-time curve).

Molecules are shown by their SMILES. Like-named read-outs stand apart in the source and are kept apart here.

The values that follow come from patent US11332470B2, “CXCR4 inhibitors and uses thereof” (X4 Pharmaceuticals, Inc., priority 2016, dated 2022).

`CN1CCN(c2c(CN3CCCC3c3ccccn3)nc3ccc(F)cn23)CC1` (stereo not drawn) [Compound I-63]: in data set [1] (Table 9, mouse), the fraction unbound came to 0.053. Also, in “in vitro”, the Papp A→B at 90 min, 10 μM lay within 10 to 30 ×10⁻⁶ cm/s; the Papp B→A at 90 min, 10 μM lay within 10 to 30 ×10⁻⁶ cm/s; the efflux ratio at 90 min, 10 μM fell in the range of 0.1 to 10. Moreover, in data set [2] (Table 9, mouse), the fraction unbound came to 0.133. Further, in data set [3] (setting [4]), the Kp is 1.21. In addition, in data set [3] (0-1 h, 3 time points), the Kp uu worked out at 0.48, the clearance was 25.5 mL/min/kg and the half-life was 232 min. Besides, the AUC(0-t) in data set [3] (setting [5]) stood at 518 ng·h/mL. Further, in data set [3] (setting [6]), the AUC(0-t) was 427 ng·h/mL.
`CN1CCN(c2cccc3[nH]c(CN4CCCC4c4ncccc4Cl)nc23)CC1` (stereo not drawn) [Compound I-26]: the fraction unbound in data set [1] (Table 9, mouse) was determined as 0.076. In “in vitro”, the Papp A→B at 90 min, 10 μM lay within 10 to 30 ×10⁻⁶ cm/s; the Papp B→A at 90 min, 10 μM lay in the range of 10 to 30 ×10⁻⁶ cm/s; the efflux ratio at 90 min, 10 μM was in the range of 0.1 to 10. Besides, in data set [2] (Table 9, mouse), the fraction unbound stood at 0.127. Besides, the Kp in data set [3] (setting [4]) was 1.86. For the same molecule, in data set [3] (0-1 h, 3 time points), the Kp uu was 1.11, the clearance was 140 mL/min/kg and the half-life is 16.1 min. In addition, the AUC(0-t) in data set [3] (setting [5]) came out at 742 ng·h/mL. For the same molecule, the AUC(0-t) in data set [3] (setting [6]) turned out to be 400 ng·h/mL.
With `CN1CCN(c2c(CN3CCCC3c3nccs3)nc3ccccn23)CC1` (stereo not drawn) [Compound I-70], in data set [1] (Table 9, mouse), the fraction unbound turned out to be 0.207. Further, in the data set “in vitro”, the Papp A→B at 90 min, 10 μM is 10 to 30 ×10⁻⁶ cm/s; the Papp B→A at 90 min, 10 μM was in the range of 10 to 30 ×10⁻⁶ cm/s; the efflux ratio at 90 min, 10 μM was in the range of 0.1 to 10. Further, the fraction unbound in data set [2] (Table 9, mouse) was found to be 0.148. The Kp in data set [3] (setting [4]) came to 1.41. Also, in data set [3] (0-1 h, 3 time points), the Kp uu is 1.99, the clearance is 25 mL/min/kg and the half-life was 218 min. Also, the AUC(0-t) in data set [3] (setting [5]) is 736 ng·h/mL. In data set [3] (setting [6]), the AUC(0-t) is 523 ng·h/mL.
As for `CN1CCN(c2c(CN3CCCC3c3ccccn3)nc3ccccn23)CC1` (stereo not drawn) [Compound I-41], the fraction unbound in data set [1] (Table 9, mouse) is 0.069. Also, in “in vitro”, the Papp A→B at 90 min, 10 μM fell in the range of 10 to 30 ×10⁻⁶ cm/s; the Papp B→A at 90 min, 10 μM lay within 10 to 30 ×10⁻⁶ cm/s; the efflux ratio at 90 min, 10 μM fell in the range of 0.1 to 10. In addition, the fraction unbound in data set [2] (Table 9, mouse) was 0.239. The Kp in data set [3] (setting [4]) was determined as 0.77. Besides, in data set [3] (0-1 h, 3 time points), the Kp uu amounted to 0.22, the clearance was 33.2 mL/min/kg and the half-life was 320 min. Further, in data set [3] (setting [5]), the AUC(0-t) turned out to be 210 ng·h/mL. In addition, the AUC(0-t) in data set [3] (setting [6]) turned out to be 271 ng·h/mL.
For the molecule `Cc1cccnc1C1CCCN1Cc1nc2cccc(N3CCN(C4CC4)CC3)c2[nH]1` (stereo not drawn) [Compound I-31], the fraction unbound in data set [1] (Table 10, mouse) stood at 0.008. Besides, in “in vitro”, the Papp A→B at 90 min, 10 μM was in the range of 10 to 30 ×10⁻⁶ cm/s; the Papp B→A at 90 min, 10 μM lay within 10 to 30 ×10⁻⁶ cm/s; the efflux ratio at 90 min, 10 μM was 0.1 to 10. For the same molecule, the free fraction (fraction unbound) in data set [2] (Table 10, mouse) is 0.05. Also, the Kp in data set [3] (setting [7]) came out at 37.2. In data set [3] (0-24 h, 4 time points), the Kp uu turned out to be 5.95, the clearance was 235 mL/min/kg and the half-life was 16.5 min. In addition, the AUC(0-t) in data set [3] (setting [8]) stood at 7260 ng·h/mL. Further, the AUC(0-t) in data set [3] (setting [9]) came to 195 ng·h/mL.
In the case of `Cc1cccnc1C1CCCN1Cc1cn2c(N3CCN(C)C4(CC4)C3)cccc2n1` (stereo not drawn) [Compound I-29], the fraction unbound in data set [1] (Table 10, mouse) was found to be 0.063. For the same molecule, in “in vitro”, the Papp A→B at 90 min, 10 μM lay within 10 to 30 ×10⁻⁶ cm/s; the apparent permeability from basolateral to apical (Papp B→A) at 90 min, 10 μM fell in the range of 10 to 30 ×10⁻⁶ cm/s; the efflux ratio at 90 min, 10 μM lay in the range of 0.1 to 10. Further, the fraction unbound in data set [2] (Table 10, mouse) is 0.455. Besides, the Kp in data set [3] (setting [7]) is 0.53. In data set [3] (0-24 h, 4 time points), the Kp uu was determined as 0.07, the clearance is 66.8 mL/min/kg and the half-life is 257 min. Moreover, the AUC(0-t) in data set [3] (setting [8]) was determined as 394 ng·h/mL. In addition, the AUC(0-t) in data set [3] (setting [9]) is 737 ng·h/mL.

As a reminder, the fraction unbound is free concentration divided by total concentration. Usually Papp A→B stands for how fast a substance crosses the layer from the apical side. Read a low Papp A→B as poor permeation. For orientation: Papp B→A means how fast a substance crosses the layer from the basolateral side. For orientation: efflux ratio means a quotient of directional permeabilities that is used to spot active efflux. By clearance is commonly meant the rate of elimination divided by the concentration. Usually half-life stands for the time in which the quantity being followed falls by half.
